Test results taken from PMC3432467 (2012).

Biological target: flavodoxin II (apoflavodoxin) (Azotobacter vinelandii, UniProt P00324, C70A)
Experiment: FMN fluorescence increase on dilution of holoprotein
Type: binding

Sequence of flavodoxin II (apoflavodoxin) (P00324 2-180 C70A): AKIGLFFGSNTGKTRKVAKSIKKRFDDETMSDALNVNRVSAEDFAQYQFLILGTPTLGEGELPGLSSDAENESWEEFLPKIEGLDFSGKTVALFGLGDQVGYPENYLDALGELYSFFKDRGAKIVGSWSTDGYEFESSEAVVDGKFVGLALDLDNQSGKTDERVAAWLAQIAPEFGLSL

SMILES: Cc1cc2nc3c(=O)[nH]c(=O)nc-3n(C[C@H](O)[C@H](O)[C@H](O)COP(=O)(O)O)c2cc1C [flavin mononucleotide]
- Kd: 3.82 pM
